Read-outs that look alike come from different tables or passages of the source.
Key:
[1] = tested on: abdominal constriction response; test: Mouse Acetylcholine Bromide-Induced Abdominal Constriction Assay (MAIT); format: in vivo; settings: 30 mg/kg po; 5.5 mg/kg i.p. acetylcholine bromide 30 minutes later; ten minute observation
Protocol: The mouse acetylcholine bromide-induced abdominal constriction assay, is described by Collier et al. in Brit. J. Pharmacol. Chem. Ther., 32: 295-310, 1968, with minor modifications was used to assess analgesic potency of the compounds herein. The test drugs or appropriate vehicle were administered orally (p.o.) and 30 minutes later the animal received an intraperitoneal (i.p.) injection of 5.5 mg/kg acetylcholine bromide (Matheson, Coleman and Bell, East Rutherford, N.J.). The mice were then placed in groups of three into glass bell jars and observed for a ten minute observation period for the occurrence of an abdominal constriction response (defined as a wave of constriction and elongation passing caudally along the abdominal wall, accompanied by a twisting of the trunk and followed by extension of the hind limbs). The percent inhibition of this response to a nociceptive stimulus (equated to % analgesia) was calculated as follows: The % Inhibition of response, i.e., % analgesia is equal to the difference between the number of control animals responding and the number of drug-treated animals responding times 100 divided by the number of control animals responding.
At least 15 animals were used for control and in each of the drug treated groups. At least three doses were used to determine each dose response curve and ED50 (that dose which would produce 50% analgesia). The ED50 values and their 95% fiducial limits were determined by a computer assisted probit analysis.

[2] = target: T1, Alpha-2D Adrenergic Receptor (Rattus norvegicus, UniProt P22909); test: Alpha-2D Adrenergic Receptor Binding Assay (3H-para-aminoclonidine, rat cortex membranes); settings: rat cortex synaptic membranes
T1 construct: aliquots of the synaptic membrane fraction; from tissue; host or cells: rat cerebral cortex, synaptic membrane fraction (male Wistar rats)
T1 sequence (P22909 1-465): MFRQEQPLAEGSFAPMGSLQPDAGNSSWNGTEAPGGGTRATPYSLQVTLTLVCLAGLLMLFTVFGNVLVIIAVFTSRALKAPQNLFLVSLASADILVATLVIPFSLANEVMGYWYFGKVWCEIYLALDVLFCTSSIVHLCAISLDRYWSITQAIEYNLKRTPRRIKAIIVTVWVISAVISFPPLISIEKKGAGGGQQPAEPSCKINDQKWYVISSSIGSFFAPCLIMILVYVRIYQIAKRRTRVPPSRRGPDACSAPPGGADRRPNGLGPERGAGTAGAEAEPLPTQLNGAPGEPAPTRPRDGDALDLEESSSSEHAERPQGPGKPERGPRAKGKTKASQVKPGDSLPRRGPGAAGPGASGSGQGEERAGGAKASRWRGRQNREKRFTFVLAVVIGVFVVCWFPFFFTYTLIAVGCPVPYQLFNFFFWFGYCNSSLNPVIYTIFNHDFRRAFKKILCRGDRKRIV
Protocol: Male, Wistar rats (150-250 g, VAF, Charles River, Kingston, N.Y.) are sacrificed by cervical dislocation and their brains removed and placed immediately in ice cold HEPES buffered sucrose. The cortex is dissected out and homogenized in 20 volumes of HEPES sucrose in a Teflon™-glass homogenizer. The homogenate is centrifuged at 1000 g for 10 min, and the resulting supernatant centrifuged at 42,000 g for 10 min. The resulting pellet is resuspended in 30 volumes of 3 mM potassium phosphate buffer, pH 7.5, preincubated at 25° C. for 30 min and recentrifuged. The resulting pellet is resuspended as described above and used for the receptor binding assay. Incubation is performed in test tubes containing phosphate buffer, 2.5 mM MgCl2, aliquots of the synaptic membrane fraction, the ligand ^3 H-para-aminoclonidine and test drug at 25° C. for 20 min. The incubation is terminated by filtration of the tube contents through glass fiber filter sheets. Following washing of the sheets with 10 mM HEPES buffer, the adhering radioactivity is quantified by liquid scintillation spectrometry.
Binding of the test drug to the receptor is determined by comparing the amount of radiolabeled ligand bound in control tubes without drug to the amount of radiolabeled ligand bound in the presence of the drug. Dose-response data are analyzed with LIGAND, a nonlinear curve fitting program designed specifically for the analysis of ligand binding data. This assay is described by Simmons, R. M. A., and Jones, D. J., Binding of [^3 H-]prazosin and [^3 H]p-aminoclonidine to (α-Adrenoceptors in Rat Spinal Cord, Brain Research 445:338-349, 1988.

[3] = 25° C., 20 min, read-out: α-2D Binding Ki

Row | Structure (SMILES) | MAIT Activity % Inhibition [1] [%] | Ki [2, 3] [nM] | Ki ([2]; value in parentheses, not explained, read-out: α-2D Binding Ki (second value, in parentheses)) [nM]
1 | c1cc(-c2c[nH]cn2)c2ccsc2c1 [Cp-1, 4-(Thionaphth-4-yl)-1H-imidazole (Z)-2-butenedioate] | 73 | 2.6 | –
2 | C1=C(c2c[nH]cn2)c2ccsc2CC1 [Cp-2, 4-(4-Imidazoyl)-6,7-dihydrothianapthene Perchlorate] | 100 | 1.5 | –
3 | c1nc(C2CCCc3sccc32)c[nH]1 (stereo not shown) [Cp-3, 4-(4-Imidazoyl)-4,5,6,7-tetrahydrothianapthene Perchlorate] | 100 | 0.56 | –
4 | Cc1sc(C)c2c1CCC=C2c1c[nH]cn1 [Cp-4, 4-(1,3-Dimethyl-6,7-dihydrobenzo[c]thiophene-4-yl)-1H-imidazole(Z)-2-Butenedioate] | 40 | – | 1.2
5 | Cc1sc(C)c2c1CCCC2c1c[nH]cn1.O=C(O)/C=C\C(=O)O (stereo not shown) [Cp-5, 4-(1,3-Dimethyl-4,5,6,7-tetrahydrobenzo[c]thiophene-4-yl)-1H-imidazole (Z)-2-Butenedioate] | 93 | 2.9 | –
6 | c1nc(C2CCCc3ccsc32)c[nH]1 (stereo not shown) [Cp-6] | – | 0.35 | –
7 | C1=C(c2c[nH]cn2)c2sccc2CC1 [Cp-7] | 60 | 3 | –

Source: patent US6313309A, “4-thionaphthyl--1H--imidazoles which are usefulα22-adrenoceptoR agonists/ antagonists” (Ortho-McNeil Pharmaceutical, Inc., priority 1999, dated 2001)
